Experimental data: US8936807B2, “Use of the cathelicidin LL-37 and derivatives thereof for wound healing” (Lipopeptide AB, priority 2003, dated 2015)

How the values were obtained:
Format in all cases: cell-based, human
HaCat cells [1] = assay: Proliferation of HaCat cells assessed by 3H-Thymidine incorporation; conditions: 10% serum, 96 Hours; for Increased Proliferation (%): vs control 0 μg/ml
Experimental: HaCat cells were cultured in medium (DMEM, +10% FCS and PEST). HaCaT cells were plated in 96 well plates (Falcon, USA) at the concentration of 2000 cells per well. Cells were plated at −48 hours and stimulated with different concen-trations of synthetic LL-37, LL-36, and LL-38 peptide by hour 0 and after 48 hours.
The testing was done in one experiment with 6 wells in each condition. […] of ^3H-Thymidine (THYMIDINE, [METHYL-^3H]-740.0 GBq/mmol (20.00 Ci/mmol) 1.0 ml of Ethanol:Water, 7:3, Perkin Elmer Life Sciences Inc. Boston Mass., USA) was added to each well and incubated for 12-17 hours. Proliferation was evaluated by ^3H-Thymidine incorporation a liquid scintilator (MicroBeta Perkin Elmer Life Sciences Inc. Boston Mass., USA) after 72 and 96 hours.

HaCat cells [2] = assay: Proliferation and viability of HaCat cells measured by mitochondrial activity (WST-1); conditions: EGF 1.7 nM, 10% serum, 48 h
Experimental: (§1) HaCat cells were used for these experiments. HaCat cells are an immortalized human keratinocyte cell line (Boukamp et al., J Cell Biol 106:761-771, 1988), which is suitable for experimental keratinocyte research. HaCat cells were cultured in medium (DMEM, +10% FCS and PEST). Both types of cell cultures were treated with synthetic, bioactive LL-37 (lot YS 5253). In addition a mixture of LL-37 (114 μg/ml) and CPL-Galactolipid (0.2%) in medium containing serum at either 2 or 10% was added to evaluate the capacity to increase proliferation and inhibit cytotoxicity. Cells were harvested at different time-points (24 h, 48 h, 72 h and 96 h) and counted by flowcytometry (Becton-Dickinson) and stained by Trypan-Blue to evaluate viability. […] Proliferation and viability were also ascertained by measuring mitochondrial activity (WST-1, Roche, Cook et al. Anal Biochem 179:1-7, 1989).

HaCat cells [3] = assay: Proliferation of HaCat cells assessed by flowcytometry and Trypan-Blue; conditions: EGF 1.7 nM, 10% serum
Experimental: as §1, with “In addition a mixture of LL-37 (114 μg/ml) and CPL-Galactolipid (0.2%) in medium containing serum at either 2 or 10% was added to evaluate the capacity to increase proliferation and inhibit cytotoxicity.” left out

Q: For “LLGDFFRKSKEKIGKEFKRIVQRIKDFLRNLVPRTESS (Synthetic Peptide LL-38)”, which “Counts Per Minute (Mean)” value (HaCat cells [1]; LL-38 1.00 μg/ml) is on record?
A: The value was 82008 Counts Per Minute.

Q: And the “Increased Proliferation (%)” value (HaCat cells [1]; LL-38 1.00 μg/ml)?
A: The value was 4%.

Q: And the “Counts Per Minute (Mean)” value (HaCat cells [1]; LL-38 5.00 μg/ml)?
A: Its value is 68694 Counts Per Minute.

Q: What about the “Increased Proliferation (%)” value (HaCat cells [1]; LL-38 5.00 μg/ml) of the same substance?
A: The value was −13%.

Q: And the “Counts Per Minute (Mean)” value (HaCat cells [1]; LL-38 10.00 μg/ml)?
A: Its value is 57293 Counts Per Minute.

Q: What about the “Increased Proliferation (%)” value (HaCat cells [1]; LL-38 10.00 μg/ml) of the same substance?
A: Its value is −28%.

Q: And the “Counts Per Minute (Mean)” value (HaCat cells [1]; LL-38 25.00 μg/ml)?
A: The value was 54294 Counts Per Minute.

Q: What about the “Increased Proliferation (%)” value (HaCat cells [1]; LL-38 25.00 μg/ml) of the same substance?
A: The value was −31%.

Q: And the “Counts Per Minute (Mean)” value (HaCat cells [1]; LL-38 50.00 μg/ml)?
A: The value was 48701 Counts Per Minute.

Q: And the “Increased Proliferation (%)” value (HaCat cells [1]; LL-38 50.00 μg/ml)?
A: Its value is −39%.

Q: What does the source list for “LLGDFFRKSKEKIGKEFKRIVQRIKDFLRNLVPRTE (Synthetic Peptide LL-36)”?
A: Counts Per Minute (Mean) (HaCat cells [1]; LL-36 1.00 μg/ml): 86253 Counts Per Minute; Increased Proliferation (%) (HaCat cells [1]; LL-36 1.00 μg/ml): 24%; Counts Per Minute (Mean) (HaCat cells [1]; LL-36 5.00 μg/ml): 116381 Counts Per Minute; Increased Proliferation (%) (HaCat cells [1]; LL-36 5.00 μg/ml): 68%; Counts Per Minute (Mean) (HaCat cells [1]; LL-36 10.00 μg/ml): 70157 Counts Per Minute; Increased Proliferation (%) (HaCat cells [1]; LL-36 10.00 μg/ml): 1%; Counts Per Minute (Mean) (HaCat cells [1]; LL-36 25.00 μg/ml): 72674 Counts Per Minute; Increased Proliferation (%) (HaCat cells [1]; LL-36 25.00 μg/ml): 5%; Counts Per Minute (Mean) (HaCat cells [1]; LL-36 50.00 μg/ml): 68560 Counts Per Minute; Increased Proliferation (%) (HaCat cells [1]; LL-36 50.00 μg/ml): -1%

Q: Which Absorbance (HaCat cells [2]) does the source give for “EGF: EGF, the golden standard for epithelial cell proliferation, used at 1.7 nM [reference compound]” here?
A: The Absorbance was 1.107.

Q: What about the “Increased Proliferation (%)” value (HaCat cells [2]; vs baseline (-EGF)) of the same substance?
A: The value was 77%.

Q: And the “Number of Cells (Mean)” value (HaCat cells [3]; 96 h)?
A: Its value is 42000.

Q: And the “Increased Proliferation (%)” value (HaCat cells [3]; 96 h, vs baseline (-EGF))?
A: The value was 30%.

Q: And the “Number of Cells (Mean)” value (HaCat cells [3]; no lipid, 72 h)?
A: Its value is 85050.

Q: And the “Increased Proliferation (%)” value (HaCat cells [3]; no lipid, 72 h, vs baseline)?
A: The value was 54%.

Q: And the “Number of Cells (Mean)” value (HaCat cells [3]; with lipid 0.2%, 72 h)?
A: Its value is 87640.

Q: And the “Increased Proliferation (%)” value (HaCat cells [3]; with lipid 0.2%, 72 h, vs baseline)?
A: Its value is 58%.
